“And” between values parts separate entries of the source, which are not always exact repeats. Identical values can stand only once. Results filed as inconclusive are left out.

The test has as its system BDF1 mice, B16 melanoma s.c., survival/tumor T/C. The test is described as follows: NCI In Vivo Anticancer Drug Screen. Data for tumor model B16 Melanoma (subcutaneous) in B6D2F1 (BDF1) mice. Here is the method: The antitumor activity of compounds was measured in mice bearing transplantable tumors. Survival or tumor size were measured and the results are expressed as the measurement made in the treated group (T) divided by the measurement made in the vehicle treated control group (C). The tumor model used in this assay is B16 Melanoma (subcutaneous) in B6D2F1 (BDF1) mice

The mark [1] stands for this setting: endpoint: median survival time, dose: 1.0 mg/kg/injection, schedule: Q01DX009 (ip), vehicle: saline, higher = longer survival.
Where [2] appears, read: endpoint: median survival time, dose: 3.12 mg/kg/injection, schedule: Q01DX009 (ip), vehicle: Klucel (hydroxypropylcellulose) (HPC), higher = longer survival.
[3] abbreviates: endpoint: median survival time, dose: 6.25 mg/kg/injection, schedule: Q01DX009 (ip), vehicle: Klucel (hydroxypropylcellulose) (HPC), higher = longer survival.
Where [4] appears, read: endpoint: median survival time, dose: 12.5 mg/kg/injection, schedule: Q01DX009 (ip), vehicle: Klucel (hydroxypropylcellulose) (HPC), higher = longer survival.
Setting [5] is: endpoint: median survival time, dose: 20.0 mg/kg/injection, schedule: Q01DX009 (ip), vehicle: saline, higher = longer survival.
The mark [6] stands for this setting: endpoint: median survival time, dose: 6.25 mg/kg/injection, schedule: Q01DX009 (ip), vehicle: saline, higher = longer survival.
Setting [7] is: endpoint: median survival time, dose: 12.5 mg/kg/injection, schedule: Q01DX009 (ip), vehicle: saline, higher = longer survival.
The mark [8] stands for this setting: endpoint: median survival time, dose: 25.0 mg/kg/injection, schedule: Q01DX009 (ip), vehicle: saline, higher = longer survival.

As for `Cc1c(N)nc([C@H](CC(N)=O)NC[C@H](N)C(N)=O)nc1C(=O)N[C@H](C(=O)N[C@H](C)[C@@H](O)[C@H](C)C(=O)N[C@H](C(=O)NCCc1nc(-c2nc(C(=O)NCCC[S+](C)C)cs2)cs1)[C@@H](C)O)C(OC1OC(CO)C(O)C(O)C1OC1OC(CO)C(O)C(OC(N)=O)C1O)c1cnc[nH]1` (some centres not stated), the T/C is, setting by setting: under setting [1], 120 % of control; (endpoint: median survival time, dose: 2.0 mg/kg/injection, schedule: Q01DX009 (ip), vehicle: water, higher = longer survival) 152 % of control and 160 % of control; (endpoint: median survival time, dose: 3.0 mg/kg/injection, schedule: Q01DX005 (ip), vehicle: water, higher = longer survival) 118 % of control; (endpoint: median survival time, dose: 3.0 mg/kg/injection, schedule: Q01DX009 (ip), vehicle: saline, higher = longer survival) 119 % of control; (endpoint: median survival time, dose: 3.0 mg/kg/injection, schedule: Q01DX009 (ip), vehicle: water, higher = longer survival) 96 % of control; under setting [2], 171 % of control. For the same compound, the T/C was 165 % of control and 179 % of control (endpoint: median survival time, dose: 4.0 mg/kg/injection, schedule: Q01DX009 (ip), vehicle: water, higher = longer survival); 118 % of control (endpoint: median survival time, dose: 6.0 mg/kg/injection, schedule: Q01DX005 (ip), vehicle: water, higher = longer survival); 121 % of control (endpoint: median survival time, dose: 6.0 mg/kg/injection, schedule: Q01DX009 (ip), vehicle: saline, higher = longer survival); 109 % of control (endpoint: median survival time, dose: 6.0 mg/kg/injection, schedule: Q01DX009 (ip), vehicle: water, higher = longer survival); 175 % of control under setting [3]; 162 % of control and 185 % of control (endpoint: median survival time, dose: 8.0 mg/kg/injection, schedule: Q01DX009 (ip), vehicle: water, higher = longer survival). The T/C by setting is: (endpoint: median survival time, dose: 12.0 mg/kg/injection, schedule: Q01DX009 (ip), vehicle: water, higher = longer survival) 112 % of control; under setting [4], 168 % of control; (endpoint: median survival time, dose: 16.0 mg/kg/injection, schedule: Q01DX009 (ip), vehicle: water, higher = longer survival) 158 % of control (2×) and 159 % of control; (endpoint: median survival time, dose: 16.0 mg/kg/injection, schedule: Q01DX010 (ip), vehicle: water, higher = longer survival) 93 % of control; under setting [5], 161 % of control; (endpoint: median survival time, dose: 24.0 mg/kg/injection, schedule: Q01DX009 (ip), vehicle: saline, higher = longer survival) 112 % of control. Also, the T/C runs as follows: (endpoint: median survival time, dose: 25.0 mg/kg/injection, schedule: Q01DX009 (ip), vehicle: Klucel (hydroxypropylcellulose) (HPC), higher = longer survival) 100 % of control; (endpoint: median survival time, dose: 32.0 mg/kg/injection, schedule: Q01DX009 (ip), vehicle: water, higher = longer survival) 171 % of control; (endpoint: median tumor weight (est.), dose: 8.0 mg/kg/injection, schedule: Q01DX009 (ip), vehicle: water, higher = larger tumour) 47 % of control; (endpoint: median tumor weight (est.), dose: 12.0 mg/kg/injection, schedule: Q01DX009 (ip), vehicle: saline, higher = larger tumour) 22 % of control and 43 % of control; (endpoint: median tumor weight (est.), dose: 16.0 mg/kg/injection, schedule: Q01DX009 (ip), vehicle: water, higher = larger tumour) 33 % of control; (endpoint: median tumor weight (est.), dose: 24.0 mg/kg/injection, schedule: Q01DX009 (ip), vehicle: saline, higher = larger tumour) 18 % of control and 27 % of control.
In the case of `COC1C(C)OC(OC2CC(C)(O)Cc3cc4c(c(O)c32)C(=O)c2c(O)cc3c(c2C4=O)OC2OC3(C)C(O)C(N(C)C)C2O)C(OC)C1(C)OC` (configuration not stated), the T/C (endpoint: median survival time, dose: 2.5 mg/kg/injection, schedule: Q01DX009 (ip), vehicle: other, higher = longer survival) was 90 % of control; the T/C (endpoint: median survival time, dose: 625.0 micrograms/kg/injection, schedule: Q01DX009 (ip), vehicle: other, higher = longer survival) is 113 % of control; the T/C (endpoint: median survival time, dose: 1250.0 micrograms/kg/injection, schedule: Q01DX009 (ip), vehicle: other, higher = longer survival) was 95 % of control; the T/C (endpoint: median survival time, dose: 2500.0 micrograms/kg/injection, schedule: Q01DX009 (ip), vehicle: other, higher = longer survival) was 122 % of control; the T/C (endpoint: median survival time, dose: 5000.0 micrograms/kg/injection, schedule: Q01DX009 (ip), vehicle: other, higher = longer survival) is 113 % of control.
Turning to `N[C@@H](Cc1ccc(N(CCCl)CCCl)cc1)C(=O)O`, the T/C is 93 % of control under setting [1]; 150 % of control (endpoint: median survival time, dose: 2.0 mg/kg/injection, schedule: Q01DX009 (ip), vehicle: saline, higher = longer survival); 123 % of control (endpoint: median survival time, dose: 4.0 mg/kg/injection, schedule: Q01DX009 (ip), vehicle: saline, higher = longer survival); 63 % of control (endpoint: median tumor weight (est.), dose: 1.25 mg/kg/injection, schedule: Q01DX009 (ip), vehicle: Klucel (hydroxypropylcellulose) (HPC), higher = larger tumour); 44 % of control (endpoint: median tumor weight (est.), dose: 2.5 mg/kg/injection, schedule: Q01DX009 (ip), vehicle: Klucel (hydroxypropylcellulose) (HPC), higher = larger tumour); 18 % of control (endpoint: median tumor weight (est.), dose: 5.0 mg/kg/injection, schedule: Q01DX009 (ip), vehicle: Klucel (hydroxypropylcellulose) (HPC), higher = larger tumour).
`CC1(C)N=C(N)N=C(N)N1c1ccc(OCCOc2ccc(S(=O)(=O)F)cc2)c(Cl)c1`: the T/C (endpoint: median survival time, dose: 12.5 mg/kg/injection, schedule: Q04DX003 (ip), vehicle: saline, higher = longer survival) was 104 % of control; the T/C (endpoint: median survival time, dose: 25.0 mg/kg/injection, schedule: Q04DX003 (ip), vehicle: saline, higher = longer survival) was 104 % of control; the T/C (endpoint: median survival time, dose: 100.0 mg/kg/injection, schedule: Q04DX003 (ip), vehicle: saline, higher = longer survival) was 109 % of control.
As to `COc1cccc2c1C(=O)c1c(O)c3c(c(O)c1C2=O)CC(O)(C(C)=O)CC3OC1CC(N)C(O)C(C)O1` (configuration not stated), the T/C (endpoint: median survival time, dose: 5.8 mg/kg/injection, schedule: Q01DX009 (ip), vehicle: saline, higher = longer survival) was 107 % of control; the T/C (endpoint: median survival time, dose: 11.7 mg/kg/injection, schedule: Q01DX009 (ip), vehicle: saline, higher = longer survival) was 103 % of control; the T/C (endpoint: median survival time, dose: 23.4 mg/kg/injection, schedule: Q01DX009 (ip), vehicle: saline, higher = longer survival) is 120 % of control.
For `COC(=O)Nc1nc2ccc(C(=O)c3cccs3)cc2[nH]1`, the T/C is 110 % of control (endpoint: median survival time, dose: 50.0 mg/kg/injection, schedule: Q04DX002 (iv), vehicle: other, higher = longer survival); 104 % of control (endpoint: median survival time, dose: 50.0 mg/kg/injection, schedule: Q05DX005 (ip), vehicle: other, higher = longer survival); 105 % of control (endpoint: median survival time, dose: 60.0 mg/kg/injection, schedule: Q05DX005 (ip), vehicle: other, higher = longer survival); 103 % of control (endpoint: median survival time, dose: 70.0 mg/kg/injection, schedule: Q05DX005 (ip), vehicle: other, higher = longer survival).
For the compound `COc1cc2c[n+](C)c3c4cc5c(cc4ccc3c2cc1OC)OCO5`, the T/C is, setting by setting: under setting [2], 107 % of control; under setting [3], 96 % of control; under setting [4], 116 % of control.
As to `CC1(C)N=C(N)N=C(N)N1c1ccc(CCCCc2cccc(S(=O)(=O)F)c2)c(Cl)c1`, the T/C is, setting by setting: (endpoint: median survival time, dose: 12.0 mg/kg/injection, schedule: Q01DX009 (ip), vehicle: saline, higher = longer survival) 121 % of control; (endpoint: median survival time, dose: 18.0 mg/kg/injection, schedule: Q01DX009 (ip), vehicle: saline, higher = longer survival) 98 % of control.
Regarding `CS(=O)(=O)OCCCNCCCOS(C)(=O)=O`, the T/C (endpoint: median survival time, dose: 5.0 mg/kg/injection, schedule: Q01DX009 (ip), vehicle: saline, higher = longer survival) is 106 % of control; the T/C (endpoint: median survival time, dose: 10.0 mg/kg/injection, schedule: Q01DX009 (ip), vehicle: saline, higher = longer survival) is 110 % of control; the T/C under setting [5] was 92 % of control.
In the case of `CC1(C)N=C(N)N=C(N)N1c1ccc(CCC(=O)Nc2ccc(S(=O)(=O)F)cc2)c(Cl)c1`, the T/C was 108 % of control under setting [6], 103 % of control under setting [7] and 114 % of control under setting [8].
As for `O=NN(CCF)C(=O)NC1CCSCC1`, the T/C was 177 % of control (endpoint: median survival time, dose: 31.0 mg/kg/injection, schedule: Q01DX001 (ip), vehicle: saline with Tween-80, higher = longer survival); 186 % of control (endpoint: median survival time, dose: 41.0 mg/kg/injection, schedule: Q01DX001 (ip), vehicle: saline with Tween-80, higher = longer survival); 196 % of control (endpoint: median survival time, dose: 55.0 mg/kg/injection, schedule: Q01DX001 (ip), vehicle: saline with Tween-80, higher = longer survival).
With `CC1(C)N=C(N)N=C(N)N1c1ccc(CCCCc2ccc(S(=O)(=O)F)cc2Cl)c(Cl)c1`, the T/C under setting [6] was 119 % of control; the T/C under setting [7] was 90 % of control; the T/C (endpoint: median survival time, dose: 18.75 mg/kg/injection, schedule: Q04DX003 (ip), vehicle: saline, higher = longer survival) was 88 % of control; the T/C under setting [8] is 111 % of control; the T/C (endpoint: median survival time, dose: 37.5 mg/kg/injection, schedule: Q04DX003 (ip), vehicle: saline, higher = longer survival) was 105 % of control; the T/C (endpoint: median survival time, dose: 75.0 mg/kg/injection, schedule: Q04DX003 (ip), vehicle: saline, higher = longer survival) was 110 % of control. For the same compound, the T/C (endpoint: median survival time, dose: 150.0 mg/kg/injection, schedule: Q04DX003 (ip), vehicle: saline, higher = longer survival) is 119 % of control.
In the case of `CC1=C(/C=C/C(C)=C/C=C/C(C)=C/C(=O)O)C(C)(C)CCC1`, the T/C (endpoint: median survival time, dose: 4.0 mg/kg/injection, schedule: Q01DX009 (ip), vehicle: saline with Tween-80, higher = longer survival) is 88 % of control.
